# Assay results: US20260124201A1, “CYCLOPENTANE COMPOUND” (Kissei Pharmaceutical Co., Ltd., priority 2022, published 2026)
# Biological target: T1, human OX2R (Homo sapiens, UniProt O43614)
# T1 construct: expressed in transfected cells
# T1 sequence (O43614 1-444): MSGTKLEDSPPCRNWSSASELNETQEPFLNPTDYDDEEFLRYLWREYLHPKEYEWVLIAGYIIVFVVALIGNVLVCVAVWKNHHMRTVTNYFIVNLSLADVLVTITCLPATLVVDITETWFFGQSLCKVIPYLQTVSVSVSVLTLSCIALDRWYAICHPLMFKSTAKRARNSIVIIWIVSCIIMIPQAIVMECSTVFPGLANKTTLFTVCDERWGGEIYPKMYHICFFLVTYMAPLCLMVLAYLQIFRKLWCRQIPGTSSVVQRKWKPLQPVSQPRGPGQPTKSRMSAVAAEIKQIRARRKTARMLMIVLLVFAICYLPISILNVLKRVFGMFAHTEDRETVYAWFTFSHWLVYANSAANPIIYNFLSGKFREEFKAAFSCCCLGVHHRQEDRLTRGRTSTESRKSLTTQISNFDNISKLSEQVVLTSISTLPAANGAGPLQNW
# Assay: Measurement of OX2R agonist activity (intracellular calcium concentration change, Fluo4-AM, FDSS 7000)
# Format: cell-based
# Details: compound concentration 10 μM; human OX2R-expressing CHO-K1 cells; 1 μM human orexin A peptide = 100%, medium alone = 0%
# Source text: The following abbreviations in the description, the figures and the tables have the following meanings, respectively. • AZADOL (registered trademark): 2-Hydroxy-2-azaadamantane • Boc2O: di-tert-butyl dicarbonate • DIPEA: N,N-diisopropylethylamine • DCM: dichloromethane • DMAP: 4-dimethylaminopyridine • DMF: N,N-dimethylformamide • DMSO: dimethylsulfoxide • Deoxo-Fluor: bis(2-methoxyethyl)-aminosulfur trifluoride • HATU: O-(7-azabenzotriazol-1-yl)-N,N,N′,N′-tetramethyluronium hexafluorophosphate • LDA: lithium diisopropylamide • MeCN: acetonitrile • Me4tBuXPhos: 2-di-tert-butylphosphino-3,4,5,6-tetramethyl-2′,4′,6′-triisopropyl-1,1′-biphenyl • MTBE: methyl tert-butyl ether • NMP: N-methylpyrrolidone • PdCl2(PPh3)2: dichlorobis(triphenylphosphine)palladium(II) • Pd(dba)2: bis(dibenzylideneacetone)palladium(0) • Pd2(dba)3: tris(dibenzylideneacetone)dipalladium(0) • Pd(dppf)Cl2: [1,1′-bis(diphenylphosphino)ferrocene]dichloropalladium(II) • Pd(PPh3)4: tetrakis(triphenylphosphine)palladium(0) • TEA: triethylamine • TFA: trifluoroacetic acid • THF: tetrahydrofuran • Xphos: 2-dicyclohexylphosphino-2′,4′,6′-triisopropylbiphenyl • Xphos Pd G3: (2-dicyclohexylphosphino-2′,4′,6′-triisopropyl-1,1′-biphenyl)[2-(2′-amino-1,1′-biphenyl)]palladium(II) methanesulfonic acid salt • 10% Pd/C: Palladium 10% on Carbon (wetted with ca. 55% water) • APS: aminopropylated silica gel • ODS: octadecyl-silylated silica gel • Method A: column chromatography with an aminopropylated silica gel column followed by a silica gel column • Chiral preparative column chromatography: chiral preparative column chromatography using YMC CHIRALART Cellulose-SB • Ref. No.: Reference Example Number • Str.: structural formula • Ex. No.: Example Number • Phys. data: physical data • ^1H-NMR: hydrogen nuclear magnetic resonance spectrum • CDCl3: chloroform-d1 • MS: mass spectrometry (The measured values in the tables were measured by electrospray ionization or multiionization using electrospray ionization-atmospheric pressure chemical ionization.) • Act.: activation rate of test substance at a compound concentration of 10 μM calculated by setting the fluorescence intensity obtained when human orexin A peptide was added at a concentration of 1 μM as 100% and the fluorescence intensity obtained when the medium alone was added as 0% • CHO: Chinese hamster ovary • HEPES: 2-[4-(2-hydroxyethyl)-1-piperazinyl]ethanesulfonic acid
# A human OX2R sequence (Accession No. NM_001526.4) was inserted into the multiple cloning site of pcDNA3.4 (Life Technologies Japan Ltd.) to clone a plasmid vector for human OX2R expression. The plasmid was introduced into CHO-K1 cells using Lipofectamine 2000 (Life Technologies Japan Ltd.). Two days later, the transgenic CHO-K1 cells were passaged into 175T flasks and cultured selectively for 6 days. As a selection medium, Ham's F-12 Nutrient Mix (Life Technologies Japan Ltd.), containing Geneticin (registered trademark) (Life Technologies Japan Ltd.) at a final concentration of 1 mg/mL and inactivated fetal bovine serum (Biowest) at a final concentration of 10%, was used. After the selective culture, the cells were reseeded into 96-well plates, and a human OX2R-expressing cell line was obtained by limiting dilution.
# The agonist effects of test substances on human OX2R were evaluated using the intracellular calcium concentration-change upon stimulation as an indicator. A day before measurement of the intracellular calcium concentrations, human OX2R-expressing cells suspended in a medium were seeded into 384-well plates at 5×10^3 cells/50 μL/well and cultured overnight in an incubator set at 37° C. and 5% CO2. After incubation, the medium was removed and replaced with 20 μL of a loading buffer. […]
row,Structure (SMILES),Act. (%): activation rate of test substance [%]
1,"CON(C)C(=O)[C@@]1(Cc2cccc(-c3ncccn3)c2)CC[C@H](NS(=O)(=O)C2(C)CC2)C1 (relative stereo) [Example 31, (1R*,3S*)—N-Methoxy-N-methyl-3-((1-methylcyclopropane)-1-sulfonamido)-1-(3-(pyrimidin-2-yl)benzyl)cyclopentane-1-carboxamide]",107
2,CON(C)C(=O)[C@@]1(Cc2cccc(-c3ncccn3)c2)C[C@H](F)[C@H](NS(C)(=O)=O)C1 (relative stereo) [Example 33],83
3,"C=CS(=O)(=O)N[C@H]1CC[C@](Cc2ccc(F)c(-c3ncc(F)cn3)c2)(C(=O)N(C)OC)C1 [Example 53, (1R,3S)-1-(4-Fluoro-3-(5-fluoropyrimidin-2-yl)benzyl)-N-methoxy-N-methyl-3-(vinylsulfonamido)cyclopentane-1-carboxamide]",106
4,CON(C)C(=O)[C@@]1(Cc2cc(-c3ncccn3)ccc2F)CC[C@H](NS(C)(=O)=O)C1 (relative stereo) [Example 26],99
5,"CON(C)C(=O)[C@@]1(Cc2ccc(F)c(-c3ncc(F)cn3)c2)CC[C@H](NS(=O)(=O)C2COC2)C1 [Example 54, (1R,3S)-1-(4-Fluoro-3-(5-fluoropyrimidin-2-yl)benzyl)-N-methoxy-N-methyl-3-(oxetane-3-sulfonamido)cyclopentane-1-carboxamide]",90
6,CON(C)C(=O)[C@@]1(Cc2ccc(F)c(-c3ccc(F)cc3)c2)CC[C@H](NS(C)(=O)=O)C1 (relative stereo) [Example 4],82
7,"CON(C)C(=O)[C@@]1(Cc2cccc(-c3ncc(F)cn3)c2)C[C@H](C)[C@H](NS(C)(=O)=O)C1 (relative stereo) [Example 45, (1R*,3S*,4R*)-1-(3-(5-Fluoropyrimidin-2-yl)benzyl)-N-methoxy-N,3-dimethyl-4-(methylsulfonamido)cyclopentane-1-carboxamide]",93
8,CON(C)C(=O)[C@@]1(Cc2cccc(-c3ncc(C)cn3)c2)CC[C@H](NS(C)(=O)=O)C1 (relative stereo) [Example 18],87
9,C[C@@H]1CCCN1C(=O)[C@@]1(Cc2cccc(-c3ccccc3)c2)CC[C@H](NS(C)(=O)=O)C1 (relative stereo) [Example 9],58
10,"CON(C)C(=O)[C@@]1(Cc2cccc(-c3ncccn3)c2)C[C@@H](F)[C@H](NS(C)(=O)=O)C1 (relative stereo) [Example 32, (1R*,3R*,4R*)-3-Fluoro-N-methoxy-N-methyl-4-(methylsulfonamido)-1-(3-(pyrimidin-2-yl)benzyl)cyclopentane-1-carboxamide]",89
11,"CS(=O)(=O)N[C@H]1CC[C@](Cc2cccc(-c3ccccc3)c2)(C(=O)NCC(F)(F)F)C1 (relative stereo) [Example 74, (1R*,3S*)-1-([1,1′-Biphenyl]-3-ylmethyl)-3-(methylsulfonamido)-N-(2,2,2-trifluoroethyl)cyclopentane-1-carboxamide]",33
12,"CS(=O)(=O)N[C@H]1CC[C@](Cc2cccc(-c3ccccc3)c2)(C(=O)N2CCCO2)C1 (relative stereo) [Example 7, N-((1S*,3R*)-3-([1,1′-Biphenyl]-3-ylmethyl)-3-(isoxazolidine-2-carbonyl)cyclopentyl)methanesulfonamide]",70
13,"CON(C)C(=O)[C@@]1(Cc2ccc(O)c(-c3ncc(F)cn3)c2)C[C@H](F)[C@H](NS(C)(=O)=O)C1 (relative stereo) [Example 39, (1R*,3S*,4R*)-3-Fluoro-1-(3-(5-fluoropyrimidin-2-yl)-4-hydroxybenzyl)-N-methoxy-N-methyl-4-(methylsulfonamido)cyclopentane-1-carboxamide]",91
14,C[C@H]1CCCN1C(=O)[C@@]1(Cc2cccc(-c3ccccc3)c2)CC[C@H](NS(C)(=O)=O)C1 (relative stereo) [Example 8],75
